This is an account of results in patent US20150202187A1, “COMPOSITIONS AND METHODS FOR TREATMENT OF VITILIGO” (priority 2012, published 2015).

The subject of assay [1] is human melanocytes. The assay can be described thus: Melanogenesis in cultured primary human melanocytes. In kind it is cell-based. Here is the method:
Rapamycin (also called sirolimus) inhibits immune attack by inhibiting the response to interleukin-2 (IL-2) and blocking activation of T- and B-cells. Rapamycin binds to the cytosolic protein FK-binding protein 12 (FKBP12) and inhibits the mammalian target of rapamycin (mTOR) pathway by directly binding the mTOR Complex 1 (mTORC1). […] For example, FIG. 1 depicts a western blot of lysates from HL60 cells, a model system for studying human myeloid cell differentiation, which were treated with rapamycin for 24 hours. […] Additionally, FIG. 2 depicts human melanocytes that were treated with rapamycin (0.01 μM) for 96 hours.
(§1) In FIG. 5, Primary Human melanocytes were treated with each agent or the combination for 96 h. […] FIG. 7 depicts a Western blot for protein expression of survival signals in primary human melanocytes treated with FGF, stem cell factor (SCF), forskolin and alpha-MSH, as compared to untreated melanocytes. […] Designation of 1 indicates the darkening (repigmentation) of skin surrounding hair follicles.

The test system of assay [2] is primary human melanocytes. Put plainly: Proliferation of primary human melanocytes. In kind it is cell-based. The settings on record: 10 ng/mL, 96 h, DMSO as untreated control (FIG. 3). Here is the method: In some embodiments, the present invention is directed to a composition comprising a cosmeceutically acceptable carrier, rapamycin and growth factors such as fibroblast growth factor (FGF), Stem cell Factor (SCF) or Endothelins. […] In FIG. 3, treated Primary Human melanocytes were treated with bFGF (10 ng/mL) with DMSO as untreated control for 96 h. Growth Factors such as basic Fibroblast Growth Factor, Stem Cell Factor and Endothelins are important regulators of melanocyte differentiation, migration, proliferation and survival. Growth factors can therefore protect cells from destruction induced by immune cells. Furthermore, growth factors such as those described, can potentially increase migration of melanoblasts (melanocyte precursor cells) from peripheral regions of vitiligo patches or from hair follicles into the vitiligo lesion thus allowing repigmentation.
as §1

In the case of `N[C@@H](Cc1ccc(O)cc1)C(=O)O` [L-Tyrosine], the “melanogenesis in cultured primary melanocytes” value in assay [1] (96 hours (FIG. 10)) was “increased melanogenesis”. On to `N[C@@H](Cc1ccc(O)c(O)c1)C(=O)O` [L-dopa, L-DOPA], for which the “melanogenesis compared to untreated melanocytes” value in assay [1] (FIG. 6) is “increased melanogenesis”. Also, the “melanogenesis in human melanocytes” value in assay [1] (each agent alone, 96 h (FIG. 4)) is “melanogenesis increases”. With “bFGF: recombinant human basic fibroblast growth factor (FGF2)”, the “proliferation of primary human melanocytes” value in assay [2] is on record as “increases proliferation”.
